Assays:
[1] = test system: barnyard grass; test: Test Example 3: herbicidal effect by foliage application, Wagner pot (Table 18, symbol H); format: in vivo, barnyard grass (Echinochloa crus-galli)
How it was run: (§1)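 Plants were sown in alluvial soil held under 0.1–0.5 cm standing water and grown 14 days in a greenhouse at 25–30 °C. An emulsifiable formulation, water-diluted to the set dose, was then sprayed onto the foliage, and effects were scored three weeks later using previously defined criteria.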

[2] = test system: Chinese sprangletop; test: Test Example 3: herbicidal effect by foliage application, Wagner pot (Table 18, symbol D); format: in vivo, chinese sprangletop (Leptochloa chinensis)
How it was run: as §1

[3] = test system: rice flat sedge; test: Test Example 3: herbicidal effect by foliage application, Wagner pot (Table 18, symbol E); format: in vivo, rice flat sedge (Cyperus iria)
How it was run: as §1

[4] = test system: southern crabgrass; test: Test Example 4: herbicidal effect by soil treatment (Table 19, symbol F); format: in vivo, southern crabgrass (Digitaria ciliaris)
How it was run: (§2)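 Applied as a water-diluted emulsion, the compound was sprayed onto soil covering newly sown seeds. Evaluation came three weeks after application, in a greenhouse held at 25° C. to 30° C.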

[5] = test system: green foxtail; test: Test Example 4: herbicidal effect by soil treatment (Table 19, symbol G); format: in vivo, green foxtail (Setaria viridis)
How it was run: as §2

[6] = test system: barnyard grass; test: Test Example 4: herbicidal effect by soil treatment (Table 19, symbol H); format: in vivo, barnyard grass (Echinochloa crus-galli)
How it was run: as §2

[7] = test system: wild oat; test: Test Example 4: herbicidal effect by soil treatment (Table 19, symbol I); format: in vivo, wild oat (Avena fatua)
How it was run: as §2

[8] = test system: blackgrass; test: Test Example 4: herbicidal effect by soil treatment (Table 19, symbol J); format: in vivo, blackgrass (Alopecurus myosuroides)
How it was run: as §2

[9] = test system: Italian ryegrass; test: Test Example 4: herbicidal effect by soil treatment (Table 19, symbol K); format: in vivo, Italian ryegrass (Lolium multiflorum)
How it was run: as §2

[10] = test system: velvetleaf; test: Test Example 4: herbicidal effect by soil treatment (Table 19, symbol M); format: in vivo, velvetleaf (Abutilon theophrasti)
How it was run: as §2

[11] = test system: redroot pigweed; test: Test Example 4: herbicidal effect by soil treatment (Table 19, symbol N); format: in vivo, redroot pigweed (Amaranthus retroflexus)
How it was run: as §2

[12] = test system: lambsquarters; test: Test Example 4: herbicidal effect by soil treatment (Table 19, symbol O); format: in vivo, lambsquarters (Chenopodium album)
How it was run: as §2

[13] = test system: chickweed; test: Test Example 4: herbicidal effect by soil treatment (Table 19, symbol P); format: in vivo, common chickweed (Stellaria media)
How it was run: as §2

[14] = test system: persian speedwell; test: Test Example 4: herbicidal effect by soil treatment (Table 19, symbol R); format: in vivo, Persian speedwell (Veronica persica)
Source text: [Test Example 4] Herbicidal Effect Test by Soil Treatment
Sterilized diluvial soil was placed in a plastic box having a length of 21 cm, a width of 13 cm, and a depth of 7 cm. The seeds of each of southern crabgrass, green foxtail, barnyard grass, wild oat, blackgrass, Italian ryegrass, windgrass, velvetleaf, redroot pigweed, lambsquarters, chickweed, false cleavers, persian speedwell, corn, soybean, rice, wheat, beet, and rapeseed were sowed in a spot-like manner and covered with the soil having a thickness of about 1.5 cm. Subsequently, the emulsion agent of the compound of the present invention prepared according to Formulation Example 2 was diluted with water so as to achieve a predetermined herbicide amount, and the diluted emulsion agent was uniformly applied to the surface of the soil with a small-sized spray. The plastic box was placed in a greenhouse at 25° C. to 30° C. for growth of the plants. Three weeks after the herbicide application, the effect of the herbicide on each plant was evaluated according to the criteria of Test Example 1.

[15] = test system: southern crabgrass; test: Test Example 5: herbicidal effect by foliage application, plastic box (Table 20, symbol F); format: in vivo, southern crabgrass (Digitaria ciliaris)
How it was run: (§3)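 Sow seeds spot-wise in sterilized diluvial soil; cover with ~1.5 cm soil. Grow 14 days in greenhouse, 25° C. to 30° C. Spray foliage with emulsion diluted to predetermined amount. Rate effect after 3 weeks.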

[16] = test system: green foxtail; test: Test Example 5: herbicidal effect by foliage application, plastic box (Table 20, symbol G); format: in vivo, green foxtail (Setaria viridis)
How it was run: as §3

[17] = test system: barnyard grass; test: Test Example 5: herbicidal effect by foliage application, plastic box (Table 20, symbol H); format: in vivo, barnyard grass (Echinochloa crus-galli)
How it was run: as §3

[18] = test system: wild oat; test: Test Example 5: herbicidal effect by foliage application, plastic box (Table 20, symbol I); format: in vivo, wild oat (Avena fatua)
How it was run: as §3

[19] = test system: blackgrass; test: Test Example 5: herbicidal effect by foliage application, plastic box (Table 20, symbol J); format: in vivo, blackgrass (Alopecurus myosuroides)
How it was run: as §3

[20] = test system: Italian ryegrass; test: Test Example 5: herbicidal effect by foliage application, plastic box (Table 20, symbol K); format: in vivo, Italian ryegrass (Lolium multiflorum)
How it was run: as §3

[21] = test system: windgrass; test: Test Example 5: herbicidal effect by foliage application, plastic box (Table 20, symbol L); format: in vivo, windgrass (Apera spica-venti)
How it was run: as §3

[22] = test system: velvetleaf; test: Test Example 5: herbicidal effect by foliage application, plastic box (Table 20, symbol M); format: in vivo, velvetleaf (Abutilon theophrasti)
How it was run: as §3

[23] = test system: redroot pigweed; test: Test Example 5: herbicidal effect by foliage application, plastic box (Table 20, symbol N); format: in vivo, redroot pigweed (Amaranthus retroflexus)
How it was run: as §3

[24] = test system: lambsquarters; test: Test Example 5: herbicidal effect by foliage application, plastic box (Table 20, symbol O); format: in vivo, lambsquarters (Chenopodium album)
How it was run: as §3

[25] = test system: chickweed; test: Test Example 5: herbicidal effect by foliage application, plastic box (Table 20, symbol P); format: in vivo, common chickweed (Stellaria media)
How it was run: as §3

[26] = test system: persian speedwell; test: Test Example 5: herbicidal effect by foliage application, plastic box (Table 20, symbol R); format: in vivo, Persian speedwell (Veronica persica)
How it was run: as §3

[27] = foliage application, AAH 320 g/ha, three weeks after application
[28] = amount of applied herbicide 280 g/ha
[29] = amount of applied herbicide 320 g/ha
[30] = 320 g/ha, foliage application after 14-day growth, evaluated three weeks after application

## COc1ccc(Cl)cc1-c1sc2ccccc2c1-c1c(O)c(OC)nn(C)c1=O [1-178]
[1]; 320 g/ha
  herbicidal effect on H (barnyard grass), rating 0-5: 4 (Herbicidal rate of 70% or more and less than 90%)
[2]; 320 g/ha
  herbicidal effect on D (Chinese sprangletop), rating 0-5: 0 (Herbicidal rate of 5% or less (almost no effect))
[3]; 320 g/ha
  herbicidal effect on E (rice flat sedge), rating 0-5: 5 (Herbicidal rate of 90% or more (almost completely withered))
[4]; AAH 320 g/ha
  F: southern crabgrass, herbicidal effect rating: 0 (Herbicidal rate of 5% or less (almost no effect))
[5]; AAH 320 g/ha
  G: green foxtail, herbicidal effect rating: 0 (Herbicidal rate of 5% or less (almost no effect))
[6]; AAH 320 g/ha
  H: barnyard grass, herbicidal effect rating: 0 (Herbicidal rate of 5% or less (almost no effect))
[7]; AAH 320 g/ha
  I: wild oat, herbicidal effect rating: 0 (Herbicidal rate of 5% or less (almost no effect))
[8]; AAH 320 g/ha
  J: blackgrass, herbicidal effect rating: 1 (Herbicidal rate of 5% or more and less than 20%)
[9]; AAH 320 g/ha
  K: Italian ryegrass, herbicidal effect rating: 0 (Herbicidal rate of 5% or less (almost no effect))
[10]; AAH 320 g/ha
  M: velvetleaf, herbicidal effect rating: 0 (Herbicidal rate of 5% or less (almost no effect))
[11]; AAH 320 g/ha
  N: redroot pigweed, herbicidal effect rating: 4 (Herbicidal rate of 70% or more and less than 90%)
[12]; AAH 320 g/ha
  O: lambsquarters, herbicidal effect rating: 0 (Herbicidal rate of 5% or less (almost no effect))
[13]; AAH 320 g/ha
  P: chickweed, herbicidal effect rating: 4 (Herbicidal rate of 70% or more and less than 90%)
[14]; AAH 320 g/ha
  R: persian speedwell, herbicidal effect rating: 4 (Herbicidal rate of 70% or more and less than 90%)
[15]; [27]
  F: southern crabgrass, herbicidal effect: 3 (Herbicidal rate of 40% or more and less than 70%)
[16]; [27]
  G: green foxtail, herbicidal effect: 4 (Herbicidal rate of 70% or more and less than 90%)
[17]; [27]
  H: barnyard grass, herbicidal effect: 4 (Herbicidal rate of 70% or more and less than 90%)
[18]; [27]
  I: wild oat, herbicidal effect: 4 (Herbicidal rate of 70% or more and less than 90%)
[19]; [27]
  J: blackgrass, herbicidal effect: 1 (Herbicidal rate of 5% or more and less than 20%)
[20]; [27]
  K: Italian ryegrass, herbicidal effect: 0 (Herbicidal rate of 5% or less (almost no effect))
[21]; [27]
  L: windgrass, herbicidal effect: 4 (Herbicidal rate of 70% or more and less than 90%)
[22]; [27]
  M: velvetleaf, herbicidal effect: 3 (Herbicidal rate of 40% or more and less than 70%)
[23]; [27]
  N: redroot pigweed, herbicidal effect: 5 (Herbicidal rate of 90% or more (almost completely withered))
[24]; [27]
  O: lambsquarters, herbicidal effect: 4 (Herbicidal rate of 70% or more and less than 90%)
[25]; [27]
  P: chickweed, herbicidal effect: 5 (Herbicidal rate of 90% or more (almost completely withered))
[26]; [27]
  R: persian speedwell, herbicidal effect: 4 (Herbicidal rate of 70% or more and less than 90%)

## COc1cccc(-c2sc3ccc(F)cc3c2-c2c(O)c(C)nn(C)c2=O)n1 [2-382]
[1]; [28]
  herbicidal effect on H: barnyard grass: 0 (Herbicidal rate of 5% or less (almost no effect))
[2]; [28]
  herbicidal effect on D: Chinese sprangletop: 0 (Herbicidal rate of 5% or less (almost no effect))
[3]; [28]
  herbicidal effect on E: rice flat sedge: 3 (Herbicidal rate of 40% or more and less than 70%)
[4]; [28]
  herbicidal effect, F: southern crabgrass: 0 (Herbicidal rate of 5% or less (almost no effect))
[5]; [28]
  herbicidal effect, G: green foxtail: 0 (Herbicidal rate of 5% or less (almost no effect))
[6]; [28]
  herbicidal effect, H: barnyard grass: 1 (Herbicidal rate of 5% or more and less than 20%)
[7]; [28]
  herbicidal effect, I: wild oat: 0 (Herbicidal rate of 5% or less (almost no effect))
[8]; [28]
  herbicidal effect, J: blackgrass: 0 (Herbicidal rate of 5% or less (almost no effect))
[9]; [28]
  herbicidal effect, K: Italian ryegrass: 1 (Herbicidal rate of 5% or more and less than 20%)
[10]; [28]
  herbicidal effect, M: velvetleaf: 1 (Herbicidal rate of 5% or more and less than 20%)
[11]; [28]
  herbicidal effect, N: redroot pigweed: 4 (Herbicidal rate of 70% or more and less than 90%)
[12]; [28]
  herbicidal effect, O: lambsquarters: 4 (Herbicidal rate of 70% or more and less than 90%)
[13]; [28]
  herbicidal effect, P: chickweed: 4 (Herbicidal rate of 70% or more and less than 90%)
[14]; [28]
  herbicidal effect, R: persian speedwell: 4 (Herbicidal rate of 70% or more and less than 90%)

## Cc1nn(C)c(=O)c(-c2c(-c3ccc(C(F)(F)F)cc3)sc3c(F)cccc23)c1O [4-044]
[1]; 320 g/ha
  herbicidal effect on barnyard grass (H): 5 (Herbicidal rate of 90% or more (almost completely withered))
[2]; 320 g/ha
  herbicidal effect on Chinese sprangletop (D): 5 (Herbicidal rate of 90% or more (almost completely withered))
[3]; 320 g/ha
  herbicidal effect on rice flat sedge (E): 5 (Herbicidal rate of 90% or more (almost completely withered))
[4]; [29]
  Herbicidal effect by soil treatment, F: southern crabgrass: 0 (Herbicidal rate of 5% or less (almost no effect))
[5]; [29]
  Herbicidal effect by soil treatment, G: green foxtail: 0 (Herbicidal rate of 5% or less (almost no effect))
[6]; [29]
  Herbicidal effect by soil treatment, H: barnyard grass: 0 (Herbicidal rate of 5% or less (almost no effect))
[7]; [29]
  Herbicidal effect by soil treatment, I: wild oat: 0 (Herbicidal rate of 5% or less (almost no effect))
[8]; [29]
  Herbicidal effect by soil treatment, J: blackgrass: 0 (Herbicidal rate of 5% or less (almost no effect))
[9]; [29]
  Herbicidal effect by soil treatment, K: Italian ryegrass: 0 (Herbicidal rate of 5% or less (almost no effect))
[10]; [29]
  Herbicidal effect by soil treatment, M: velvetleaf: 0 (Herbicidal rate of 5% or less (almost no effect))
[11]; [29]
  Herbicidal effect by soil treatment, N: redroot pigweed: 0 (Herbicidal rate of 5% or less (almost no effect))
[12]; [29]
  Herbicidal effect by soil treatment, O: lambsquarters: 0 (Herbicidal rate of 5% or less (almost no effect))
[13]; [29]
  Herbicidal effect by soil treatment, P: chickweed: 1 (Herbicidal rate of 5% or more and less than 20%)
[14]; [29]
  Herbicidal effect by soil treatment, R: persian speedwell: 3 (Herbicidal rate of 40% or more and less than 70%)
[15]; [30]
  herbicidal effect on F: southern crabgrass (evaluation grade 0-5): 0 (Herbicidal rate of 5% or less (almost no effect))
[16]; [30]
  herbicidal effect on G: green foxtail (evaluation grade 0-5): 1 (Herbicidal rate of 5% or more and less than 20%)
[17]; [30]
  herbicidal effect on H: barnyard grass (evaluation grade 0-5): 2 (Herbicidal rate of 20% or more and less than 40%)
[18]; [30]
  herbicidal effect on I: wild oat (evaluation grade 0-5): 0 (Herbicidal rate of 5% or less (almost no effect))
[19]; [30]
  herbicidal effect on J: blackgrass (evaluation grade 0-5): 0 (Herbicidal rate of 5% or less (almost no effect))
[20]; [30]
  herbicidal effect on K: Italian ryegrass (evaluation grade 0-5): 4 (Herbicidal rate of 70% or more and less than 90%)
[21]; [30]
  herbicidal effect on L: windgrass (evaluation grade 0-5): 5 (Herbicidal rate of 90% or more (almost completely withered))
[22]; [30]
  herbicidal effect on M: velvetleaf (evaluation grade 0-5): 3 (Herbicidal rate of 40% or more and less than 70%)
[23]; [30]
  herbicidal effect on N: redroot pigweed (evaluation grade 0-5): 4 (Herbicidal rate of 70% or more and less than 90%)
[24]; [30]
  herbicidal effect on O: lambsquarters (evaluation grade 0-5): 3 (Herbicidal rate of 40% or more and less than 70%)
[25]; [30]
  herbicidal effect on P: chickweed (evaluation grade 0-5): 5 (Herbicidal rate of 90% or more (almost completely withered))
[26]; [30]
  herbicidal effect on R: persian speedwell (evaluation grade 0-5): 5 (Herbicidal rate of 90% or more (almost completely withered))
